Results reported in PMC5577105, “A New Chimeric Natriuretic Peptide, CNAAC, for the Treatment of Left Ventricular Dysfunction after Myocardial Infarction” (Scientific Reports, 2017).

How the values were obtained:
[1] = system: myocardial infarction rats (left anterior descending coronary artery ligation); experiment: Serum humoral factors by ELISA after myocardial infarction; type: in vivo; details: NP 20 nmol/kg i.p. every 2 days for 4 weeks, rat ELISA, n = 6
Procedure: (§1) 0.85% NaCl; 20 nmol/kg·2d; n = 6). The Sham and MI animal model were established as described by Johns TN et al.[24], [25] […] The chest was closed immediately. Only a thoracotomy and closure were performed in the sham group. From the day of surgery, 0.85% NaCl or NPs (20 nmol/kg) were administered to these groups (i.p), one injection every two days and lasted for four weeks. Four weeks later, the cardiac function was measured by Doppler echocardiography under anesthesia with pentobarbital sodium (40 mg/kg i.p.). A 12 MHz linear probe (Vevo2100, VisualSonics, Inc., CAN) was used to perform the transthoracic echocardiography. Left ventricular (LV) ejection fraction (EF), LV fraction shortening (FS), LV end diastolic diameter (LVEDd), and left ventricular end systolic diameter (LVESd) were measured. All examinations were performed in a blinded state. Blood samples were centrifuged (4000 rpm, 15 min) and the serum was separated. Serum BNP, Ang II, ALD, ET-1, cGMP levels were detected with rat ELISA kits (Lianshuo, Shanghai, China).

[2] = system: myocardial infarction rats (left anterior descending coronary artery ligation); experiment: Cardiac hemodynamics after myocardial infarction; type: in vivo, rat; details: MI rats, NP 20 nmol/kg i.p. every 2 days for 4 weeks, anesthetized, LV catheter, mean ± SEM, n = 6; for +dp/dtmax / −dp/dtmax: in mmHg/s
Procedure: as §1, with “The” for “0.85% NaCl; 20 nmol/kg·2d; n = 6). The”, “state.” for “state. Blood samples were centrifuged (4000 rpm, 15 min) and the serum was separated. Serum BNP, Ang II, ALD, ET-1, cGMP levels were detected with rat ELISA kits (Lianshuo, Shanghai, China).”
(§2) The day after echocardiography was performed; rats in each group were weighed and anesthetized via a peritoneal injection of pentobarbital sodium (40 mg/kg i.p.). Supplemental doses of sodium pentobarbital were given when needed to maintain uniform anesthesia. A micro catheter was inserted into the left ventricle through the right […], and left ventricular systolic pressure (LVSP), left ventricular end diastolic pressure (LVEDP), and ± dp/dtmax were recorded by the BL-420F BioData Acquisition & Analysis Systems (TME Technology Co, Ltd, Chengdu, China). At the end of the experiment, blood was sampled and the following parameters were recorded: heart weight (HW), left ventricle weight (LVW), and lung weight (LW).

[3] = system: myocardial infarction rats (left anterior descending coronary artery ligation); experiment: Tissue weights / cardiac hypertrophy after myocardial infarction; type: in vivo, rat; details: MI rats, NP 20 nmol/kg i.p. every 2 days for 4 weeks; mean ± SEM, n = 6
Procedure: as §1, with “The” for “0.85% NaCl; 20 nmol/kg·2d; n = 6). The”, “state.” for “state. Blood samples were centrifuged (4000 rpm, 15 min) and the serum was separated. Serum BNP, Ang II, ALD, ET-1, cGMP levels were detected with rat ELISA kits (Lianshuo, Shanghai, China).”
as §2

[4] = design: method as in PMID 18205700; details: in circulation; cited from earlier work
[5] = rat, in vivo, iv
Procedure: To determine the metabolic status of NPs in circulation, blood was collected from rats after a bolus injection of NPs. Rats were anesthetized with pentobarbital sodium (40 mg/kg i.p). One microcatheter was inserted into the left jugular vein to administer NPs, and another one was inserted into the right carotid artery to collect blood. After the surgery was completed, rats were allowed to stabilize for 15 min. Human ANP, CNP, VNP, or CNAAC at a concentration of 40 nmol/kg was administered in a bolus fashion (0.1 ml). Blood (0.5 ml) was sampled 5, 10, 20, and 30 min after the bolus injection. The samples from the plasma were analyzed using LT-20AT High-Performance-Liquid-Chromatography (HPLC) (Shimadzu, Tokyo, Japan). A linear gradient (Buffer A: acetonitrile with 0.05% trifluoroacetic acid; Buffer B: double distilled water with 0.05% trifluoroacetic acid)[36] was used for both analyses to separate peptides on an Inertsil OSD-3 (250 mm × 4.6 mm, 5 µm) chromatographic column (Shimadzu, Tokyo, Japan) and a Water Quatro-premier tandem quadrupole mass spectrometry and Alliance 2695 chromatographic system (Waters, Milford, Massachusetts, USA). Peak areas have been calculated with the Masslynx 4.1 software from Waters. […] Each experiment was conducted in duplicate, whereby duplicates are defined as two different vials.

| Substance | serum level of Ang II, change vs. MI group [1] | serum level of ET-1, change vs. MI group [1] | serum level of cGMP, change vs. MI group [1] | Heart rate [2] [bpm] | LVEDP [2] [mm Hg] | LVSP [2] [mm Hg] | +dp/dtmax [2] | −dp/dtmax [2] | BW (body weight) [3] [g] | HW (heart weight) [3] [mg] | LVW (left ventricular weight) [3] [mg] | LW (lung weight) [3] [mg] | circulating half-life [4] | serum level of ALD, change vs. MI group [1] | NP remaining at 10 min [5] [%] | NP remaining at 20 min [5] | NP remaining at 30 min [5] |
| --- | --- | --- | --- | --- | --- | --- | --- | --- | --- | --- | --- | --- | --- | --- | --- | --- | --- |
| C-type natriuretic peptide [CNP] | decreased | decreased | increased | 443 ± 21 | 6.5 ± 1.5 | 122.7 ± 4.8 | 4025 ± 289 | 3917 ± 250 | 347 ± 10 | 1072 ± 84 | 492 ± 24 | 2190 ± 149 | – | – | – | – | – |
| brain natriuretic peptide [BNP] | – | – | – | – | – | – | – | – | – | – | – | – | approximately 23 min | – | – | – | – |
| atrial natriuretic peptide [ANP] | decreased | decreased | increased | 437 ± 15 | 7.2 ± 1.8 | 112.5 ± 3.9 | 3651 ± 320 | 3424 ± 453 | 362 ± 8 | 1010 ± 39 | 492 ± 24 | 2094 ± 188 | – | decreased | 32.7 | Less than 10% | completely degraded |
